Read-outs that look alike come from different tables or passages of the source.
Key:
[1] = tested on: pluripotent macrophages; assay: in vitro differentiation of monocytes-derived pluripotent macrophages into neuronal-like cells; details: for effect on cells of increased concentration or number of doses: concentration increased above the recommended ones, or number of doses increased
Method: (§1) Isolated monocytes were centrifuged and resuspended in DMEM/10% FBS at a concentration of 550 cells/ml. M-CSF (Macrophage colony-stimulating factor) was added to resuspended cells at a concentration of 1:2000 with a stock solution at 0.1 mg/ml.
(§2) 1.2 million monocytes were plated per each 9.6 cm^2 well of a 6-well plate, 550,000 monocytes per each 3.1 cm^2 well of a 12-well plate, and 6 million monocytes per each 25 cm^2 flask. To ensure that monocytes became confluent and evenly distributed, and thus maintained a good differentiation rate, flasks and plates remained horizontal throughout the protocol, plating was done slowly by gently releasing monocytes from the pipette. Plated cells were left at room temperature for at least 15 min so that cells became fully attached to the surface of the plates or flasks, and subsequently incubated at 37° C. with 5% CO2 until day 4.
(§3) Once the tubes of steps e) and f) were at 37° C., the growth factor BHA (butylated hydroxyanizole) was added to the culture medium of monocytes at a final concentration of 50 nM, as follows: • g) adding 10 μl of 100 mM BHA (0.0089 grams of BHA+500 μL ethanol) to the 10 ml of DMEM/10% FBS of step e), thereby obtaining a 100 μM BHA/DMEM solution. Then diluting 10 μl of this 100 μM solution with a further 10 ml of DMEM/10% FBS heated at 37° C., thereby obtaining a 100 nM BHA/DMEM solution; • h) discarding the medium of the 6- and 12-well plates containing the monocytes isolated from the same subject as the PBMCs of step b); • i) adding the BHA/DMEM solution and the conditioned medium to each well of the plates in a 1:1 ratio, i.e.: • 1.5 ml of the 100 nM BHA/DMEM of step g) and 1.5 ml of the PBMCs conditioned medium of step f), for each well of a 6-well plate, and • 1 ml of the 100 nM BHA/DMEM of step g) and 1 ml of the PBMCs conditioned medium of step f), for each well of a 12-well plate; • j) incubating the plates at 37° C. with 5% CO2 until day 10. […]

[2] = tested on: pluripotent macrophages
Method: as §1, §2, §3

| Compound | effect on cells of increased concentration or number of doses [1] | further results |
| --- | --- | --- |
| COc1ccc(O)c(C(C)(C)C)c1 [BHA, Butylated hydroxyanisole] | damaged the cells |  |
| CC1=C(/C=C/C(C)=C/C=C/C(C)=C/C(=O)O)C(C)(C)CCC1 [RA, Retinoic Acid] | damaged the cells |  |
| IGF-1: Recombinant human Insulin Growth Factor-1 (Peprotech) |  | effect on cells of increased concentration or number of doses [2]: damaged the cells |
| IGF-2: Insulin growth factor-2, exogenous factor tested as replacement |  | cell viability ([1]; replacing IGF-1 by this factor): did not improve cell viability |

Reference: patent US9932556B2, “Method for in vitro differentiation of blood circulating cells into neuronal-like cells and applications thereof” (Centre National de la Recherche Scientifique (CNRS), priority 2013, dated 2018)
